Measured values reported in US20260231994A1, “TASTE-ENHANCING COMPOSITION, METHOD FOR PRODUCING SAME, FOOD PRODUCT, AND METHOD FOR ENHANCING TASTE OF FOOD PRODUCT” (HOUSE FOODS GROUP INC., priority 2023, published 2026).

Columns and labels:
Format in all cases: in vivo
[1] = Experiment 6 sensory evaluation of cyclic dipeptides, “boosting of last flavor (aftertaste)”
How it was run: (§1)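 Reduced-sodium curry roux (44 g in 300 g hot water) was spiked with cyclic dipeptide solutions matching heat-treated coriander or paprika levels, at 0.5% or 1.0% (w/w) final. Three evaluators scored each sample against unspiked reduced-sodium and common roux. Mean scores were graded F to AA.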

[2] = Experiment 6 sensory evaluation of cyclic dipeptides, “middle fullness (enhanced thickness)”
How it was run: as §1

[3] = Experiment 6 sensory evaluation of cyclic dipeptides, “top sharp saltiness”
How it was run: as §1

[4] = Experiment 1 sensory evaluation of “boosting of flavor” (cyclic dipeptides, coriander); details: for “boosting of flavor” Average: cyclic dipeptide aqueous solution (concentration as in heat-treated coriander) at final 0.2% (w/w) in reduced-sodium curry roux dispersion, score 1-5; for “boosting of flavor” Evaluation: cyclic dipeptide aqueous solution at final 0.2% (w/w) in reduced-sodium curry roux dispersion, class of average score; for “boosting of flavor” in words: added to reduced-sodium curry roux dispersion, compared with no addition, unheated coriander or common curry roux
Description: Flour roux was prepared by putting 20 g of flour and 30 g of beef tallow in a pan, then heating with stirring at 120° C. To this flour roux were added 10 g of sodium chloride, 10 g of sugar, 10 g of cornstarch, 5 g of curry powder and 15 g of other seasoning ingredients (vegetable and fruit extracts, yeast extract and seafood extract), and after heat-treatment to 105° C., the mixture was cooled and solidified, to form a block of common curry roux.
The sodium chloride equivalent per 100 g of this curry roux was 10.6 g.
Reduced-sodium curry roux was prepared according to the same procedure, except that the amount of sodium chloride was reduced to 7 g from the amount in the common curry roux in (1).
The sodium chloride equivalent per 100 g of this reduced-sodium curry roux was 7.7 g.
Out of the cyclic dipeptides included in the heat-treated coriander prepared in 1.1. described above, which were confirmed to be increased in 1.2. above, an aqueous solution of the respective 14 cyclic dipeptides shown in the table described below was prepared. The concentration of the cyclic dipeptide in each aqueous solution was set to be equal to its concentration in the heat-treated coriander prepared in 1.1. described above, which was estimated from the ratio of the peak area of the cyclic dipeptide to the peak area of the internal standard (47 μg/g L-lysine-^13C6 monohydrochloride) confirmed in 1.2. described above.
Two dispersions of 44 g of the reduced-sodium curry roux in (2) dispersed in 300 g of hot water were prepared.
To one of them was added the heat-treated coriander or the powdered unheated coriander prepared in 1.1. described above, or the cyclic dipeptide aqueous solution (corresponding to the heat-treated coriander) prepared in (3) above, so that the final concentration was 0.2% (w/w), and a sensory evaluation was carried out.
Forty-four grams of the common curry roux in (1) was dispersed in 300 g of hot water.
The dispersion of reduced-sodium curry roux dispersed in hot water and the dispersion of common curry roux dispersed in hot water were used as comparative controls, and the strength of the flavor was evaluated by four evaluators on the basis of the following evaluation criteria from the viewpoint of “boosting of flavor.” The term “boosting of flavor” in this experiment is an effect concerted by the combination of sodium chloride and other foodstuffs in curry roux, and is an aspect of “saltiness.” Thus, the “flavor” in this experiment can be also expressed as “saltiness.”
The average of the evaluated scores was defined as “F” when it was 1.0 or lower, “C” when it was 1.1 or higher and 1.9 or lower, “B” when it was 2.0 or higher and 2.5 or lower, “A” when it was 2.6 or higher and 2.9 or lower, and “AA” when it was 3.0 or higher.

[5] = Additive amount paprika 0.5%, reduced-sodium curry roux
[6] = heat-treated paprika equivalent aqueous solution of cyclic dipeptide, final 1.0% (w/w) in reduced-sodium curry roux dispersion
[7] = heat-treated paprika equivalent aqueous solution of cyclic dipeptide, final 1.0% (w/w) in reduced-sodium curry roux dispersion, 3 evaluators
[8] = Additive amount paprika 0.5% (heat-treated paprika equivalent aqueous solution, final 0.5% (w/w)), reduced-sodium curry roux
[9] = Additive amount coriander 0.5%, reduced-sodium curry roux
[10] = heat-treated coriander equivalent aqueous solution of cyclic dipeptide, final 1.0% (w/w) in reduced-sodium curry roux dispersion
[11] = heat-treated coriander equivalent aqueous solution of cyclic dipeptide, final 1.0% (w/w) in reduced-sodium curry roux dispersion, 3 evaluators
[12] = Additive amount coriander 0.5% (heat-treated coriander equivalent aqueous solution, final 0.5% (w/w)), reduced-sodium curry roux

## cyclic (Phe-Pro) [Coriander ID 40]
[1]; [5]
  Bosting of last flavor Average: 2.3 points
  Bosting of last flavor Evaluation: B (“B” when it was 2.0 or higher and 2.5 or lower)
[1]; [6]
  Bosting of last flavor Evaluation: AA (“AA” when it was 3.0 or higher)
[1]; [7]
  Bosting of last flavor Average: 3.0 points
[2]; [5]
  Middle fullness Average: 2.3 points
  Middle fullness Evaluation: B (“B” when it was 2.0 or higher and 2.5 or lower)
[2]; [6]
  Middle fullness Evaluation: AA (“AA” when it was 3.0 or higher)
[2]; [7]
  Middle fullness Average: 3.2 points
[3]; [8]
  Top sharp saltiness Average: 2.5 points
[3]; [5]
  Top sharp saltiness Evaluation: B (“B” when it was 2.0 or higher and 2.5 or lower)
[3]; [6]
  Top sharp saltiness Evaluation: A (“A” when it was 2.6 or higher and 2.9 or lower)
[3]; [7]
  Top sharp saltiness Average: 2.7 points
[4]
  “boosting of flavor” Average: 2.8 points
  “boosting of flavor” Evaluation: A (“A” when it was 2.6 or higher and 2.9 or lower)

## cyclic (Pro-His) [Coriander ID 15]
[1]; [9]
  Bosting of last flavor Average: 2.5 points
  Bosting of last flavor Evaluation: B (“B” when it was 2.0 or higher and 2.5 or lower)
[1]; [10]
  Bosting of last flavor Evaluation: AA (“AA” when it was 3.0 or higher)
[1]; [11]
  Bosting of last flavor Average: 3.0 points
[2]; [9]
  Middle fullness Average: 2.5 points
  Middle fullness Evaluation: B (“B” when it was 2.0 or higher and 2.5 or lower)
[2]; [10]
  Middle fullness Evaluation: AA (“AA” when it was 3.0 or higher)
[2]; [11]
  Middle fullness Average: 3.0 points
[3]; [12]
  Top sharp saltiness Average: 2.2 points
[3]; [9]
  Top sharp saltiness Evaluation: B (“B” when it was 2.0 or higher and 2.5 or lower)
[3]; [10]
  Top sharp saltiness Evaluation: B (“B” when it was 2.0 or higher and 2.5 or lower)
[3]; [11]
  Top sharp saltiness Average: 2.0 points
[4]
  “boosting of flavor” in words: comparable flavor to that of the dispersion of common curry roux
  “boosting of flavor” Average: 3.0 points
  “boosting of flavor” Evaluation: AA (“AA” when it was 3.0 or higher)

## cyclic (Pro-Met) [Coriander ID 53]
[1]; [9]
  Bosting of last flavor Average: 3.0 points
  Bosting of last flavor Evaluation: AA (“AA” when it was 3.0 or higher)
[1]; [10]
  Bosting of last flavor Evaluation: AA (“AA” when it was 3.0 or higher)
[1]; [11]
  Bosting of last flavor Average: 3.8 points
[2]; [9]
  Middle fullness Average: 3.2 points
  Middle fullness Evaluation: AA (“AA” when it was 3.0 or higher)
[2]; [10]
  Middle fullness Evaluation: AA (“AA” when it was 3.0 or higher)
[2]; [11]
  Middle fullness Average: 3.0 points
[3]; [12]
  Top sharp saltiness Average: 3.0 points
[3]; [9]
  Top sharp saltiness Evaluation: AA (“AA” when it was 3.0 or higher)
[3]; [10]
  Top sharp saltiness Evaluation: AA (“AA” when it was 3.0 or higher)
[3]; [11]
  Top sharp saltiness Average: 3.0 points
[4]
  “boosting of flavor” Average: 2.3 points
  “boosting of flavor” Evaluation: B (“B” when it was 2.0 or higher and 2.5 or lower)

## cyclic (Pro-Val) [Coriander ID 29]
[1]; [5]
  Bosting of last flavor Average: 2.2 points
  Bosting of last flavor Evaluation: B (“B” when it was 2.0 or higher and 2.5 or lower)
[1]; [6]
  Bosting of last flavor Evaluation: B (“B” when it was 2.0 or higher and 2.5 or lower)
[1]; [7]
  Bosting of last flavor Average: 2.3 points
[2]; [5]
  Middle fullness Average: 2.3 points
  Middle fullness Evaluation: B (“B” when it was 2.0 or higher and 2.5 or lower)
[2]; [6]
  Middle fullness Evaluation: B (“B” when it was 2.0 or higher and 2.5 or lower)
[2]; [7]
  Middle fullness Average: 2.3 points
[3]; [8]
  Top sharp saltiness Average: 2.5 points
[3]; [5]
  Top sharp saltiness Evaluation: B (“B” when it was 2.0 or higher and 2.5 or lower)
[3]; [6]
  Top sharp saltiness Evaluation: B (“B” when it was 2.0 or higher and 2.5 or lower)
[3]; [7]
  Top sharp saltiness Average: 2.2 points
[4]
  “boosting of flavor” in words: comparable flavor to that of the dispersion of common curry roux
  “boosting of flavor” Average: 3.0 points
  “boosting of flavor” Evaluation: AA (“AA” when it was 3.0 or higher)
